Consider four compounds from patent US20080159958A1, “DETERMINATION OF HISTAMINE-3 BIOACTIVITY” (Abbott Laboratories, priority 2006, published 2008).

One assay concerns rat 1-4 Hz EEG amplitude. Put plainly: Rat cortical EEG, H1R or H3R antagonist given alone (1-4 Hz amplitude). The format is in vivo. The following applies: rats, vs. vehicle control. The procedure: (§1) All experiments have been approved by the Institutional Animal Care and Use Committee (IACUC) at Abbott Laboratories and are in strict accordance with the ethical guidelines for use of laboratory animals. All experiments were conducted with male adult CD-1 rats of the Sprague-Dawley strain (Charles River Laboratories, Portage, Mich.) with body weights in the range of 400-600 g. When the rats were not in the laboratory being tested, they were housed 1 per cage in a climate controlled room with 12 hour lights on, 12 hour lights off cycle and food provided ad-lib.
(§2) For anesthesia during surgical implantation of EEG recording electrodes, rats are administered Nembutal (Abbott Laboratories) […] ip. After achieving a deep, stable plane of anesthesia, scalp hair is removed using electric clippers and the rat is placed into the ear and incisor bars of a stereotaxic instrument to immobilize the head. The scalp is disinfected with povidone iodine, and an incision is placed longitudinally along the midline of the scalp and the tissue retracted from the skull with a blunt probe. EEG recording electrodes are bilaterally implanted over the parietal (−2.0 mm anterior-posterior, 4.0 mm lateral from bregma) and frontal (+2.0 mm anterior-posterior, 3.0 mm lateral from bregma) cortices. A reference electrode was placed 11.0 mm posterior to bregma along the centerline (0.0 mm lateral). Cortical surface electrodes consist of stainless steel screws (size #90-00) soldered to a fine wire and a miniature electrical socket. To implant the electrodes, small holes are drilled (#60 bit) into the skull, taking care not to damage the dura with the drill bit. […] Once in place, the electrodes along with the miniature connector are permanently affixed to the skull with acrylic dental cement. The rats are given a 10-14 day recovery period from the surgery before experiments are conducted.
The EEG was recorded from rats inside sound-attenuating chambers (Med Associates Inc, St. Albans, Vt.). Before any pharmacological experiments began, implanted rats were habituated to the EEG recording chambers for 2-5 hours on 5 consecutive days. When placed into the recording chambers, a flexible cable is attached to the miniature connector implanted on the rats. This cable allows the rat unrestricted movement within the chambers during the recording session. EEG amplifiers (AM Systems, Inc., Carlsborg, Wash.) and a computer-based data acquisition system (Datawave Inc., Berthoud, Colo.) were used to acquire (256 Hz sampling rate) and analyze data. All experiments and habituation sessions were conducted during the light phase of the circadian cycle.
Dose response effects on EEG were determined for the H3R antagonist Compound 1 (0.01-1.0 mg/kg), ABT-239 (0.1-3.0 mg/kg), and thioperamide (3.0-30.0 mg/kg). […] Dose response effects on EEG were also determined for the H1 antagonist diphenhydramine (1.0-10.0 mg/kg). […] Each rat received a vehicle control treatment (placebo), and all doses of the test compounds. All treatments were administered by the intraperitoneal (i.p.) route of administration. The treatments were administered in a random order on different days with one treatment per day, and at least 2 days between treatments. This within subjects design allowed each rat to serve as its own control. EEG recordings were begun within 10 minutes after injection and recording sessions lasted for 120 minutes. The time of day for injections and subsequent recordings were between 10:00 AM and 2:00 PM.
(§3) Assessment of cortical low frequency EEG amplitude in the 1-4 Hz band (delta) was used as an electrophysiological measure of H1R and H3R antagonist activity in rats. The average 1-4 Hz EEG amplitude in microvolts (μV) was determined for 10 second epochs using Fast Fourier Transform (FFT) analysis. To determine the average 1-4 Hz EEG amplitude for the first 60 minutes of the recording, 360-10 sec FFT analyzed epochs were averaged together. […]

Assay [1] relates to diphenhydramine-induced increase of rat 1-4 Hz EEG amplitude. Put plainly: Rat cortical EEG, H3R antagonist co-administered with diphenhydramine (1-4 Hz amplitude). The following applies: rats. The format is in vivo. The procedure: as §1, §2
The EEG was recorded from rats inside sound-attenuating chambers (Med Associates Inc, St. Albans, Vt.). Before any pharmacological experiments began, implanted rats were habituated to the EEG recording chambers for 2-5 hours on 5 consecutive days. When placed into the recording chambers, a flexible cable is attached to the miniature connector implanted on the rats. This cable allows the rat unrestricted movement within the chambers during the recording session. […]
as §3

For assay [2], the target named is rat histamine H3 receptor (Rattus norvegicus, UniProt Q9QYN8). The assay is described as follows: Competition binding assay with [3H]-N-α-methylhistamine, rat H3 receptor.
Chain of rat histamine H3 receptor (Q9QYN8 whole entry): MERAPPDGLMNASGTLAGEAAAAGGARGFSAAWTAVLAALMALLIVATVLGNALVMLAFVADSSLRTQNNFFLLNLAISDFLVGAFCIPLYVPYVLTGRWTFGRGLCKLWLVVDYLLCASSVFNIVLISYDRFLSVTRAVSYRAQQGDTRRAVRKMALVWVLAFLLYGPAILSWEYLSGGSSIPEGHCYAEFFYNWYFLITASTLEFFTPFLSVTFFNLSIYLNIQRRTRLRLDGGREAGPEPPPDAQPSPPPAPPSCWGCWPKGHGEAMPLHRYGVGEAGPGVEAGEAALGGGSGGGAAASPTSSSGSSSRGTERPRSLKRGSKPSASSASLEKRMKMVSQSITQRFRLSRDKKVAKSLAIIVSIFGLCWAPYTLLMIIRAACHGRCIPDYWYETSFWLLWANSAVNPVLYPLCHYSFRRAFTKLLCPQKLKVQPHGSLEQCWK
Protocol: The rat and human H3 receptor was cloned and expressed in cells, and competition binding assays carried out, according to methods previously described (see Esbenshade, et al. Journal of Pharmacology and Experimental Therapeutics, vol. 313:165-175, 2005; Esbenshade et al., Biochemical Pharmacology 68 (2004) 933-945; Krueger, et al. Journal of Pharmacology and Experimental Therapeutics, vol. 314:271-281, 2005. Membranes were prepared from C6 or HEK293 cells, expressing the rat histamine H3 receptor, by homogenization on ice in TE buffer (50 mM Tris-HCl buffer, pH 7.4, containing 5 mM EDTA), 1 mM benzamidine, 2 μg/ml aprotinin, 1 μg/ml leupeptin, and 1 μg/ml pepstatin. The homogenate was centrifuged at 40,000 g for 20 minutes at 4° C. This step was repeated, and the resulting pellet was resuspended in TE buffer. Aliquots were frozen at −70° C. until needed. On the day of assay, membranes were thawed and diluted with TE buffer.
Membrane preparations were incubated with [^3H]-N-α-methylhistamine (0.5-1.0 nM) in the presence or absence of increasing concentrations of ligands for H3 receptor competition binding. […] Bound radiolabel was determined by liquid scintillation counting. For all of the radioligand competition binding assays, IC50 values and Hill slopes were determined by Hill transformation of the data and pKi values were determined by the Cheng-Prusoff equation.
A further assay concerns the target T1, human H3 receptor (Homo sapiens, UniProt Q9Y5N1).
T1 construct: expressed in transfected cells
The assay is described as follows: Competition binding assay with [3H]-N-α-methylhistamine, human H3 receptor. The following applies: cloned human H3 receptor, cell membranes. The procedure:
Membrane preparations were incubated with [^3H]-N-α-methylhistamine (0.5-1.0 nM) in the presence or absence of increasing concentrations of ligands for H3 receptor competition binding.

Structures are written as SMILES. Where two headings read alike, the source gives them in different places.

T1 sequence (Q9Y5N1 whole entry): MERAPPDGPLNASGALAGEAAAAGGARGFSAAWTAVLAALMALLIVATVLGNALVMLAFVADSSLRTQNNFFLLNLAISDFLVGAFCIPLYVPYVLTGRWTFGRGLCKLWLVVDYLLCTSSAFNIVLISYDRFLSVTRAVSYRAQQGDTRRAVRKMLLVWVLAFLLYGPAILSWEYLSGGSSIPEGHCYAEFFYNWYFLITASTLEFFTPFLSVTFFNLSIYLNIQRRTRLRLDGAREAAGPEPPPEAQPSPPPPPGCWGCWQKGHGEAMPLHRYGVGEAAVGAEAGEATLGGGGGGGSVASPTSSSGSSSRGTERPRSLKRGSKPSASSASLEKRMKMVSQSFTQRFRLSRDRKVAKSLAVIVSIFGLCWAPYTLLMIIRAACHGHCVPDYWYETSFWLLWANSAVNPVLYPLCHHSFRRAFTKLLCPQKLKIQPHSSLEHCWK

For the compound `S=C(NC1CCCCC1)N1CCC(c2c[nH]cn2)CC1` [Compound 3, N-cyclohexyl-4-(1H-imidazol-4-yl)piperidine-1-carbothioamide], the “effect on average amplitude of 1-4 Hz EEG, given alone” value (from here on “effect on average amplitude”) with rat 1-4 Hz EEG amplitude (30.0 mg/kg i.p., first hour after injection) is “lower the average amplitude of 1-4 Hz EEG”; in the assay with rat 1-4 Hz EEG amplitude (3.0-10. mg/kg i.p., first hour) it was “did not produce significant lowering”. Besides, the “effect on diphenhydramine-induced increase of average 1-4 Hz EEG amplitude” value in assay [1] (3.0 mg/kg i.p. given 15 minutes before diphenhydramine 10.0 mg/kg i.p.) is on record as “significantly reduces”. For the same compound, the Ki (in general, the equilibrium dissociation constant of an inhibitor or competing ligand from its target) in assay [2] (read-out: rat H3 Ki, cloned rat H3 receptor, C6 or HEK293 cell membranes) was found to be 3.6 nM.
In the case of `C[C@@H]1CCCN1CCc1cc2cc(-c3ccc(C#N)cc3)ccc2o1` [Compound 2, 4-(2-[2-((R)-2-methyl-pyrrolidin-1-yl)-ethyl]-benzofuran-5-yl}-benzonitrile], the “effect on average amplitude” value is listed as “trend toward a decrease” in the assay on rat 1-4 Hz EEG amplitude (3.0 mg/kg i.p., first hour) and “did not produce statistically significant lowering” in the assay with rat 1-4 Hz EEG amplitude (0.1-3.0 mg/kg i.p., first hour). Moreover, the “effect on diphenhydramine-induced increase of average 1-4 Hz EEG amplitude” value in assay [1] (0.3 mg/kg i.p. given 15 minutes before diphenhydramine 10.0 mg/kg i.p.) is listed as “significantly reduces”.
Take `CN1C[C@H]2CCN(c3ccc(-c4ccc(-n5ncccc5=O)cc4)cc3)[C@H]2C1` [Compound 1, (3aR, 6aR)-2-[4′-(5-methyl-hexahydro-pyrrolo[3,4-b]pyrrol-1-yl)-biphenyl-4-yl]-2H-pyridazin-3-one]: the values for the Ki (at human H3 receptor; in assay [2]) were 1.9 nM and 8.1 nM, respectively. Also, the “effect on average amplitude” value is “lower the average amplitude of 1-4 Hz EEG” in the assay with rat 1-4 Hz EEG amplitude (1.0 mg/kg i.p., first hour after injection) and “did not produce significant lowering” in the assay with rat 1-4 Hz EEG amplitude (0.01-0.1 mg/kg i.p., first hour). The “effect on diphenhydramine-induced increase of average 1-4 Hz EEG amplitude” value is “did not achieve statistical significance” in assay [1] (0.01 mg/kg i.p. given 15 minutes before diphenhydramine 10.0 mg/kg i.p.); “significantly reduces” in assay [1] (0.03 mg/kg and 0.1 mg/kg i.p. given 15 minutes before diphenhydramine 10.0 mg/kg i.p.).
As to `CN(C)CCOC(c1ccccc1)c1ccccc1` [diphenhydramine], the “effect on average amplitude” value in the assay with rat 1-4 Hz EEG amplitude (10.0 mg/kg i.p., first hour) is reported as “significantly increased”; in the assay with rat 1-4 Hz EEG amplitude (1.0-3.0 mg/kg i.p., first hour) it was “not significantly different from vehicle control”.
